# Assay results as given in the supplement of paper PMC10307832.
# Columns and labels:
# Experiment in all cases: relative viability (nuclei count vs DMSO), 5 days (fraction); higher = more cells survive
# [1] = compound: Cc1nc(NC(=O)N2CCC[C@H]2C(N)=O)sc1-c1ccnc(C(C)(C)C(F)(F)F)c1 [Alpelisib] + CC(C)C[C@H](NC(=O)[C@H](Cc1ccccc1)NC(=O)c1cnccn1)B(O)O [Bortezomib] (partner 0.002 µM)
# In short: (§1)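 Dosing by pin tool came one day after lung cancer cell lines were seeded in 1536-well plates, using either one drug or a fixed anchor-drug dose plus five library-drug doses (not always all listed) in √10 steps. After 5 days, nuclei were counted on 4× images. Relative viability is treated-well nuclei count divided by vehicle-well nuclei count, and values are medians of duplicate plates.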
# [2] = compound: CCCS(=O)(=O)Nc1ccc(F)c(C(=O)c2c[nH]c3ncc(-c4ccc(Cl)cc4)cc23)c1F [Vemurafenib] + CC(C)C[C@H](NC(=O)[C@H](Cc1ccccc1)NC(=O)c1cnccn1)B(O)O [Bortezomib] (partner 0.002 µM)
# In short: as §1
# [3] = compound: CCCS(=O)(=O)Nc1ccc(F)c(C(=O)c2c[nH]c3ncc(-c4ccc(Cl)cc4)cc23)c1F [Vemurafenib] + Cc1cc(Nc2cc(N3CCN(C)CC3)nc(Sc3ccc(NC(=O)C4CC4)cc3)n2)n[nH]1 [Tozasertib] (partner 0.1 µM)
# In short: as §1
# [4] = compound: COc1cccc2cc(-c3nc([C@H]4CC[C@H](C(=O)O)CC4)n4ncnc(N)c34)[nH]c12 [OSI-027] + Cc1cc(Nc2cc(N3CCN(C)CC3)nc(Sc3ccc(NC(=O)C4CC4)cc3)n2)n[nH]1 [Tozasertib] (partner 0.1 µM)
# In short: as §1
Cell Line,relative viability ([1]; first compound 0.04 µM),relative viability ([1]; first compound 0.1265 µM),relative viability ([1]; first compound 0.4 µM),relative viability ([1]; first compound 1.265 µM),relative viability ([1]; first compound 4 µM),relative viability ([2]; first compound 0.03162 µM),relative viability ([2]; first compound 0.1 µM),relative viability ([2]; first compound 1 µM),relative viability ([3]; first compound 0.03162 µM),relative viability ([3]; first compound 0.1 µM),relative viability ([3]; first compound 0.3162 µM),relative viability ([3]; first compound 1 µM),relative viability ([4]; first compound 0.01 µM),relative viability ([4]; first compound 0.03162 µM),relative viability ([4]; first compound 0.1 µM),relative viability ([4]; first compound 0.3162 µM),relative viability ([4]; first compound 1 µM),relative viability ([2]; first compound 0.3162 µM)
NCI-H441,0.631,0.45,0.531,0.329,0.385,0.336,0.482,0.412,0.708,0.561,0.476,0.591,0.625,0.72,0.629,0.535,0.489,
NCI-H460,1,0.939,1.13,0.646,0.366,0.982,1.1,1.04,0.389,0.28,,0.156,0.511,0.338,0.469,0.593,0.278,0.932
NCI-H520,0.59,0.687,0.553,0.623,0.319,0.46,0.487,0.454,0.529,0.411,0.435,0.415,0.429,0.385,0.396,0.339,0.193,0.722
NCI-H596,1.17,0.801,1.15,0.666,0.44,1.05,0.896,1.05,0.886,0.767,0.813,0.904,0.999,0.804,0.859,0.811,0.47,0.802
NCI-H647,0.75,1.1,1.34,0.944,0.922,0.881,0.96,0.874,0.262,0.263,0.271,0.248,0.401,0.291,0.292,0.433,0.147,0.739
NCI-H650,0.728,0.563,0.881,0.573,0.58,0.668,0.899,0.423,0.696,0.703,,0.614,0.711,0.738,0.637,0.605,0.411,0.443
NCI-H661,0.668,0.933,0.833,0.593,0.651,0.877,0.663,0.778,0.325,0.334,0.396,0.358,0.357,0.374,0.362,0.344,0.351,0.765
NCI-H727,0.806,0.693,0.988,0.759,0.465,0.927,0.812,0.54,0.506,0.584,0.808,0.775,0.584,0.65,0.716,0.725,0.456,1.35
NCI-H838,0.692,0.482,0.668,0.782,0.487,0.707,0.723,1.15,0.233,0.293,,0.285,0.307,0.482,0.264,0.26,0.214,
NCI-H1355,1.15,1.23,1.29,1.09,0.961,1.21,1.19,1.23,0.545,0.559,0.56,0.435,0.546,0.492,0.541,0.461,0.361,1.15
NCI-H1437,0.504,0.515,0.497,0.49,0.508,0.439,0.411,0.541,0.404,0.381,0.396,0.363,0.418,0.379,0.456,0.413,0.318,0.622
NCI-H1650,0.201,0.22,0.185,0.176,0.169,0.223,,0.217,,0.277,,0.272,0.454,0.347,0.36,0.424,0.355,0.208
NCI-H1651,0.913,0.921,0.913,0.886,0.745,0.851,0.949,1,0.605,0.594,0.636,0.57,0.669,0.642,0.801,0.692,0.591,0.769
NCI-H1666,0.837,0.695,0.882,0.591,0.423,0.839,,0.759,0.575,0.549,0.801,0.579,0.611,0.686,0.646,0.629,0.537,0.98
NCI-H1734,0.896,0.814,0.943,0.623,0.518,0.855,1.01,0.815,0.269,0.246,0.281,0.269,0.299,0.271,0.265,0.222,0.24,0.709
NCI-H1755,0.911,0.972,1.06,0.886,0.838,0.877,0.878,0.931,0.516,0.562,0.555,0.53,0.532,0.559,0.524,0.484,0.409,0.712
